Laboratory results published in ChEMBL document CHEMBL1817634, “One-pot synthesis of pyrazoline derivatised carbazoles as antitubercular, anticancer agents, their DNA cleavage and antioxidant activities” (2011).
In brackets after ≈: the same amount, converted by molar mass. Activity calls are given as the source filed them. The rule behind the calls is not given here.

Legend:
A549 [1] = test: Anticancer activity against human A549 cells assessed as cell growth at 10 ug/mL by sulforhodamine B assay; format: functional; details: read-out: Activity
A498 [2] = test: Anticancer activity against human A498 cells assessed as cell growth at 10 ug/mL by sulforhodamine B assay; format: functional; details: read-out: Activity
A549 [3] = test: Cytotoxicity against human A549 cells; format: functional
A498 [4] = test: Anticancer activity against human A498 cells assessed as cell growth at 80 ug/mL by sulforhodamine B assay; format: functional; details: read-out: Activity
A549 [5] = test: Anticancer activity against human A549 cells assessed as cell growth at 40 ug/mL by sulforhodamine B assay; format: functional; details: read-out: Activity
A549 [6] = test: Anticancer activity against human A549 cells assessed as cell growth at 80 ug/mL by sulforhodamine B assay; format: functional; details: read-out: Activity
A498 [7] = test: Cytotoxicity against human A498 cells; format: functional
A498 [8] = test: Anticancer activity against human A498 cells assessed as cell growth at 20 ug/mL by sulforhodamine B assay; format: functional; details: read-out: Activity
A549 [9] = test: Anticancer activity against human A549 cells assessed as cell growth at 20 ug/mL by sulforhodamine B assay; format: functional; details: read-out: Activity
A498 [10] = test: Anticancer activity against human A498 cells assessed as cell growth at 40 ug/mL by sulforhodamine B assay; format: functional; details: read-out: Activity
[11] = test system: Mycobacterium tuberculosis; test: Antitubercular activity against Mycobacterium tuberculosis H37Rv after 3 weeks by turbidity assay; format: functional; details: 504 h
[12] = Antioxidant activity assessed as potassium ferric cyanide reducing power at 10 ug after 20 mins by spectrophotometry; format: functional
[13] = Antioxidant activity assessed as potassium ferric cyanide reducing power at 100 ug after 20 mins by spectrophotometry; format: functional
Nucleic Acid = test: Induction of Escherichia coli DNA cleavage at 100 ug after 2 hrs by agarose gel electrophoresis; format: nucleic-acid assay
[14] = Antioxidant activity assessed as potassium ferric cyanide reducing power at 50 ug after 20 mins by spectrophotometry; format: functional

Row | SMILES | growth at 10 µg/mL (A549 [1]) [%] | growth at 10 µg/mL (A498 [2]) [%] | GI50 (A549 [3]) [µg/mL] | TGI (A549 [3]) [µg/mL] | growth at 80 µg/mL (A498 [4]) [%] | growth at 40 µg/mL (A549 [5]) [%] | growth at 80 µg/mL (A549 [6]) [%] | GI50 (A498 [7]) [µg/mL] | TGI (A498 [7]) [µg/mL] | growth at 20 µg/mL (A498 [8]) [%] | growth at 20 µg/mL (A549 [9]) [%] | growth at 40 µg/mL (A498 [10]) [%] | MIC [11] [µg/mL] | reducing power [12] [absorbance] | LC50 (A549 [3]) [µg/mL] | LC50 (A498 [7]) [µg/mL] | reducing power [13] [absorbance] | Activity (Nucleic Acid) | reducing power [14] [absorbance]
1 | COc1cccc2c1C(=O)c1c(O)c3c(c(O)c1C2=O)C[C@@](O)(C(=O)CO)C[C@@H]3O[C@H]1C[C@H](N)[C@H](O)[C@H](C)O1 [DOXORUBICIN] | 10.7 | 10.7 | < 10 | 41.3 (≈ 76 µM) | -66.9 | -39.5 | -66.9 | < 10 | 32.4 (≈ 59.6 µM) | 8.2 | 8.2 | -39.5 |  |  |  |  |  |  | 
2 | CN[C@@H]1[C@H](O[C@H]2[C@H](O[C@H]3[C@H](O)[C@@H](O)[C@H](N=C(N)N)[C@@H](O)[C@@H]3N=C(N)N)O[C@@H](C)[C@]2(O)C=O)O[C@@H](CO)[C@H](O)[C@H]1O [STREPTOMYCIN] |  |  |  |  |  |  |  |  |  |  |  |  | 7.5 (≈ 12.9 µM) |  |  |  |  |  | 
3 | Clc1cccc(C2CC(c3ccc4[nH]c5c(c4c3)CCCC5)=NN2)c1 (stereo not drawn) | 81.6 | 100 | 49.8 (≈ 142 µM) | > 80 | 33.5 | 69.4 | 15.3 | 74.3 (≈ 212 µM) | > 80 | 100 | 76.2 | 97.9 | 4.5 (≈ 12.9 µM) | 0.015 | > 80 | > 80 | 0.147 | inactive | 0.066
4 | CC1CC(c2ccc3[nH]c4c(c3c2)CCCC4)=NN1 (stereo not drawn) | 90.2 | 80 | 52.5 (≈ 207 µM) | > 70 | 4 | 75.7 | 12.1 | 55.2 (≈ 218 µM) | > 70 | 82 | 81.6 | 85 | 3.5 (≈ 13.8 µM) | 0.02 | > 70 | > 70 | 0.13 | inactive | 0.105
5 | Clc1ccccc1C1CC(c2ccc3[nH]c4c(c3c2)CCCC4)=NN1 (stereo not drawn) | 90.2 | 100 | 51.6 (≈ 147 µM) | > 80 | 16.2 | 75.7 | 12.1 | 62 (≈ 177 µM) | > 80 | 100 | 81.6 | 97.4 | 5 (≈ 14.3 µM) | 0.004 | > 80 | > 80 | 0.295 | inactive | 0.121
6 | O=[N+]([O-])c1ccc(C2CC(c3ccc4[nH]c5c(c4c3)CCCC5)=NN2)cc1 (stereo not drawn) | 70.1 | 100 | 38.2 (≈ 106 µM) | > 80 | 4.1 | 50.4 | 4.2 | 56.2 (≈ 156 µM) | > 80 | 100 | 64.4 | 97.7 | 10 (≈ 27.7 µM) | 0.195 | > 80 | > 80 | 0.675 | Active | 0.475
7 | NC(=O)c1cnccn1 [PYRAZINAMIDE] |  |  |  |  |  |  |  |  |  |  |  |  | 10 (≈ 81.2 µM) |  |  |  |  |  | 
8 | Clc1ccc(C2CC(c3ccc4[nH]c5c(c4c3)CCCC5)=NN2)cc1 (stereo not drawn) | 83.2 | 100 | 47.6 (≈ 136 µM) | > 80 | 31.7 | 67.1 | 11.5 | 72.7 (≈ 208 µM) | > 80 | 100 | 74.6 | 97.5 | 3.5 (≈ 10 µM) | 0.011 | > 80 | > 80 | 0.303 | Active | 0.191
9 | COc1ccc(C2CC(c3ccc4[nH]c5c(c4c3)CCCC5)=NN2)cc1 (stereo not drawn) | 81.6 | 98.3 | 56.2 (≈ 163 µM) | > 80 | 4.2 | 69.4 | 15.3 | 55 (≈ 159 µM) | > 80 | 100 | 76.2 | 97.7 | 10 (≈ 28.9 µM) | 0.193 | > 80 | > 80 | 0.673 | inactive | 0.473
10 | Oc1ccc(C2CC(c3ccc4[nH]c5c(c4c3)CCCC5)=NN2)cc1 (stereo not drawn) | 83.2 | 83 | 76.5 (≈ 231 µM) | > 70 | 3.9 | 67.1 | 11.5 | 74.5 (≈ 225 µM) | > 70 | 86 | 74.6 | 83 | 3.5 (≈ 10.6 µM) | 0.125 | > 70 | > 70 | 0.25 | inactive | 0.14
11 | C(=C\C1CC(c2ccc3[nH]c4c(c3c2)CCCC4)=NN1)/c1ccccc1 (stereo not drawn) | 98.8 | 99.5 | 54 (≈ 158 µM) | > 80 | 6 | 88.4 | 48.7 | 57 (≈ 167 µM) | > 80 | 99.7 | 94.8 | 95.7 | 25 (≈ 73.2 µM) | 0.19 | > 80 | > 80 | 0.67 | inactive | 0.47
12 | c1ccc(C2CC(c3ccc4[nH]c5c(c4c3)CCCC5)=NN2)cc1 (stereo not drawn) | 98.8 | 100 | > 80 | > 80 | 3.9 | 88.4 | 48.7 | 55.6 (≈ 176 µM) | > 80 | 99.1 | 94.8 | 95.9 | 12 (≈ 38 µM) | 0.01 | > 80 | > 80 | 0.126 | inactive | 0.102
13 | Oc1ccccc1C1CC(c2ccc3[nH]c4c(c3c2)CCCC4)=NN1 (stereo not drawn) | 11.9 | 99.3 | 75.7 (≈ 228 µM) | > 70 | 16.5 | -18.5 | -28.4 | 62.3 (≈ 188 µM) | > 80 | 99.5 | -2.9 | 97.7 | 4.5 (≈ 13.6 µM) | 0.118 | > 70 | > 80 | 0.246 | inactive | 0.137
14 | Cc1ccc(C2CC(c3ccc4[nH]c5c(c4c3)CCCC5)=NN2)cc1 (stereo not drawn) | 11.9 | 99.3 | 74.3 (≈ 226 µM) | > 80 | 4.6 | -18.5 | -28.4 | 54 (≈ 164 µM) | > 80 | 99.2 | -2.9 | 96.2 | 12 (≈ 36.4 µM) | 0.05 | > 80 | > 80 | 0.17 | inactive | 0.11
